Laboratory results from patent US7183267B2, “β-lactamase inhibitors and methods of use thereof” (priority 2003, dated 2007).
In brackets after ≈: the same amount, converted by molar mass.

What was measured:
[1] = tested on: methicillin sensitive S. aureus ATCC 25923 (MSSA); assay: MIC assay, broth microdilution, MSSA; type: cell-based; details: Staphylococcus aureus; MSSA; substance alone; at least 24 hours at 35° C.; read-out: MIC
Procedure: (3) methicillin sensitive S. aureus ATCC 25923 (MSSA). This strain was obtained from ATCC and was used as a control.
The strains were processed according to procedures recommended by ATCC, or procedures that are routinely used. Single colonies of each organism were picked for purification to generate pure working cultures. Prior to each experiment each strain was subcultured on a fresh Mueller-Hinton agar plate (MHA).
Inocula for the MIC assays were prepared by transferring a tiny portion of one colony from a MHA plate to 2 ml of Mueller-Hinton broth (MHB) such that the estimated cell density was about 10^7 colony forming unit (CFU)/ml. This cell suspension was then further diluted 10-fold (to 10^6 CFU/ml) by transferring the 2 ml cell suspension to 18 ml of MHB. Addition of 50 μl of this dilute cell suspension to 50 μl of growth medium yielded the desired cell density, namely about 5×10^4 CFU/well, or 5×10^5 CFU/ml.
The MIC value of oxacillin was determined using the broth microdilution procedure recommended by the National Committee of Clinical Laboratory Standards (NCCLS, 2000).
The MIC experiments were performed in duplicate in 96-well microtiter plates using MHB. A stock solution of 2.6 mg/0.5 ml was prepared in dimethylsulfoxide (DMSO). A total of 8 two-fold serial dilutions were made with DMSO. Initial oxacillin doses used were (μg/ml): 64, 32, 16, 8, 4, 2, 1, and 0.5. Doses were adjusted in the confirmatory experiment, if needed, in order to establish an actual MIC value.
(§1) To each well of a 96 well microtiter plate was added 47.5 μl of MHB. A volume of 2.5 μl of each dilution of oxacillin was then transferred to appropriate wells containing the medium. All wells, except the sterility control wells, were then inoculated with 50 μl of a diluted cell suspension to give a final volume of 100 μl and a final cell density of 5×10^4 CFU/well. The volume in the sterility control wells was adjusted to 100 μl with MHB. A sterile pipette tip was used to mix the contents of each well (one tip was used going from the low to the high concentration in the same column). The microtiter plates were covered with the lids and were placed in large Stratagene Big Blue plates (Cat. # 400041). Four large kimwipes moistened with tap water were placed near the edges of the Stratagene plates to prevent evaporation of the medium. The microtiter plates were incubated for at least 24 hours at 35° C. The plates were then evaluated for growth in each well. Controls included: medium sterility and negative control (medium and bacteria only).
The procedure used to determine the antimicrobial activity of the compounds of the present invention was identical to the broth microdilution procedure described above with the exception of the preparation of the stock solutions. Stock solution at concentration of 40.96 mg/0.5 ml was prepared in DMSO for each of the compounds. A total of 8 two-fold dilutions were then made in DMSO. A volume of 2.5 μl of each dilution was delivered to appropriate wells. The initial doses used were (μg/ml): 512, 256, 128, 64, 32, 16, 8, and 4.
(§2) A numerical code was used to evaluate the extent of growth as indicated below. • 0: absence of growth • 1: barely visible (faint) growth • 2: fair growth but less than the negative solvent control • 3: growth is equivalent to the negative solvent control.
(§3) The lowest dose at which no visible growth is observed was determined to be the MIC value.
MIC assays were performed with oxacillin and the four compounds. Each of the compounds was tested at the following 8 doses (μg/ml): 512, 256, 128, 64, 32, 16, 8, and 4. Oxacillin was tested at the following 8 doses (μg/ml): 64, 32, 16, 8, 4, 2, 1, and 0.5.

[2] = tested on: methicillin resistant S. aureus ATCC 33591 (MRSA-ATCC); assay: Matrix system: oxacillin plus β-lactamase inhibitor, MRSA-ATCC; type: cell-based; parameters: key to extent of growth (numerical code): 0 = no growth, 1 = faint, 2 = fair, 3 = equal to solvent control
Procedure: as §1, §2, §3
The effect of the four compounds of the present invention on oxacillin resistance of the MRSA strains was determined using a matrix system. The β-lactamase inhibitors were tested at 5 doses against up to eleven concentrations of oxacillin. […] A 96-well microtiter plate was used for the matrix system. The procedure was identical to that described above for the MIC determination, with the exception that both oxacillin and one each of the β-lactamase inhibitors was added, 2.5 μl each, to the wells prior to addition of the test organisms.
Matrix Study:Oxacillin and Compound FL201 with MRSA-ATCC
Matrix Study: Oxacillin and Compound Fl202 with MRSA-ATCC

## Cc1onc(-c2ccccc2)c1C(=O)N[C@@H]1C(=O)N2[C@@H]1SC(C)(C)[C@@H]2C(=O)O [Oxacillin, reference compound]
[1]
  MIC: 0.25 µg/mL (≈ 0.623 µM)
[2]; Staphylococcus aureus, 24 h, matrix study, compound 0 μg/ml
  MIC: 64 µg/mL
[2]; oxacillin 0.064 μg/ml + compound 0 μg/ml
  extent of growth (numerical code): 3
[2]; oxacillin 0.125 μg/ml + compound 0 μg/ml
  extent of growth (numerical code): 3
[2]; oxacillin 0.25 μg/ml + compound 0 μg/ml
  extent of growth (numerical code): 3
[2]; oxacillin 0.5 μg/ml + compound 0 μg/ml
  extent of growth (numerical code): 3
[2]; oxacillin 1 μg/ml + compound 0 μg/ml
  extent of growth (numerical code): 3
[2]; oxacillin 2 μg/ml + compound 0 μg/ml
  extent of growth (numerical code): 3
[2]; oxacillin 4 μg/ml + compound 0 μg/ml
  extent of growth (numerical code): 3
[2]; oxacillin 8 μg/ml + compound 0 μg/ml
  extent of growth (numerical code): 3
[2]; oxacillin 16 μg/ml + compound 0 μg/ml
  extent of growth (numerical code): 2
[2]; oxacillin 32 μg/ml + compound 0 μg/ml
  extent of growth (numerical code): 2
[2]; oxacillin 64 μg/ml + compound 0 μg/ml
  extent of growth (numerical code): 0
